From ChEMBL document CHEMBL1153914, “Synthesis, binding affinity and SAR of new benzolactam derivatives as dopamine D3 receptor ligands” (Bioorg Med Chem Lett, 2009)

Legend:
D(3) dopamine receptor = D(3) dopamine receptor (Homo sapiens, UniProt P35462); assay: Displacement of [3H]spiperone from human dopamine D3 receptor
D(2) dopamine receptor [1] = molecular target: T1, D(2) dopamine receptor (Homo sapiens, UniProt P14416); assay: Displacement of [3H]spiperone from human dopamine D2 receptor
D(2) dopamine receptor [2] = molecular target: T1, D(2) dopamine receptor; assay: Displacement of [3H]spiperone from human dopamine D2 receptor at 10 uM
D(1A) dopamine receptor [3] = molecular target: T2, D(1A) dopamine receptor (Homo sapiens, UniProt P21728); assay: Displacement of [3H]SCH23390 from human dopamine D1 receptor at 10 uM
D(1A) dopamine receptor [4] = molecular target: T2, D(1A) dopamine receptor; assay: Displacement of [3H]SCH23390 from human dopamine D1 receptor
Homo sapiens = organism: Homo sapiens; assay: Selectivity ratio of Ki for human dopamine D2 receptor to Ki for human dopamine D3 receptor
[5] = Selectivity for dopamine D3 receptor over dopamine D2 receptor
[6] = molecular target: 5-hydroxytryptamine receptor 2A (Homo sapiens, UniProt P28223); assay: Displacement of [3H]ketanserin from 5HT2A receptor
Sequence of 5-hydroxytryptamine receptor 2A (P28223 whole entry): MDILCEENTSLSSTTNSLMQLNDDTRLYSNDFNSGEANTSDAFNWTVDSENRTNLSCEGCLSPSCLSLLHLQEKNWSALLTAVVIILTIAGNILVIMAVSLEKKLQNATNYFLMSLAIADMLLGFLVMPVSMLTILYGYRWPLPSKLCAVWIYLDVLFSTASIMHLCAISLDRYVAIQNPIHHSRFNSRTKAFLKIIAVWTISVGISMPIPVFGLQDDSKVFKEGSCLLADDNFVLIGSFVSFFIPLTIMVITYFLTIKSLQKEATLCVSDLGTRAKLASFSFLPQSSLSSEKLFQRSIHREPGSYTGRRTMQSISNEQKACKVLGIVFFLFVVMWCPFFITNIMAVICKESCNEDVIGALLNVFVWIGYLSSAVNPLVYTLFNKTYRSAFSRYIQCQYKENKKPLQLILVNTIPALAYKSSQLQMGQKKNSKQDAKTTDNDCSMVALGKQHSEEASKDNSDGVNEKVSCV

T2 sequence (P21728 whole entry): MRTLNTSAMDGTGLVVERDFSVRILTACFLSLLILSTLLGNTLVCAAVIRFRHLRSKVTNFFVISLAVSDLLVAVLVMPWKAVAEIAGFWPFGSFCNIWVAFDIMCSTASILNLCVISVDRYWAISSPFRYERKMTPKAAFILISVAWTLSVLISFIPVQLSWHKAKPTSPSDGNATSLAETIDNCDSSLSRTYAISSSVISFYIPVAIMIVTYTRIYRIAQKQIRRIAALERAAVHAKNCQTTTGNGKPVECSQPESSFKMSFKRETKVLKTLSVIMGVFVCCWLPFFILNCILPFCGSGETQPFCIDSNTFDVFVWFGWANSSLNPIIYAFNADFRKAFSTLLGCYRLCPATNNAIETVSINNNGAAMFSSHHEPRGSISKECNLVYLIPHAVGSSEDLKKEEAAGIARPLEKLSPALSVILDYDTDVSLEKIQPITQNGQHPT
Sequence of D(3) dopamine receptor (P35462 whole entry): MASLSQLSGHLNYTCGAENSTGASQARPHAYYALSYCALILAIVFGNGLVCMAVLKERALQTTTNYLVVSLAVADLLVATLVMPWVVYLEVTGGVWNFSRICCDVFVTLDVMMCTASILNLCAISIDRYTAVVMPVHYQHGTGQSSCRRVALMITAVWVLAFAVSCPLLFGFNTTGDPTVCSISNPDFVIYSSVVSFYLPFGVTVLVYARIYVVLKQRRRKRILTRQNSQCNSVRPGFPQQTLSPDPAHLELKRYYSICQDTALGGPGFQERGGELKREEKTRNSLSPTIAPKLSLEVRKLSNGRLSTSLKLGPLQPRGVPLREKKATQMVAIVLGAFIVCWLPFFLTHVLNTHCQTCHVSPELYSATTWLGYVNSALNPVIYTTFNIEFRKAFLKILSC
T1 sequence (P14416 whole entry): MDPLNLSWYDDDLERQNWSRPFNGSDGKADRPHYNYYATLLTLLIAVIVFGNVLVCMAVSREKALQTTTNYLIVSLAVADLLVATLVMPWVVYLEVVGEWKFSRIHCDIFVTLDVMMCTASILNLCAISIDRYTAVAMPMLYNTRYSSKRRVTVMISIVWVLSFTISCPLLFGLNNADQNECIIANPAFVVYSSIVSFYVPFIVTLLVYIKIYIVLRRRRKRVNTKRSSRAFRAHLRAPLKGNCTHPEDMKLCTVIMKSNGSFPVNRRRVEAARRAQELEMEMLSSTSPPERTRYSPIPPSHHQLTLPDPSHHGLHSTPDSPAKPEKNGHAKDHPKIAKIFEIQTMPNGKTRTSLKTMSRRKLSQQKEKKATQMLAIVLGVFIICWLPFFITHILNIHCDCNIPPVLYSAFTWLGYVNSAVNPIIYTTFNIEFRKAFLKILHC

| Structure (SMILES) | Ki (D(3) dopamine receptor; read-out: pKi (converted)) [µM] | Ki (D(2) dopamine receptor [1]) [µM] | Activity (D(2) dopamine receptor [2]) [%] | Activity (D(1A) dopamine receptor [3]) [%] | Ki (D(1A) dopamine receptor [4]) [µM] | other results |
| --- | --- | --- | --- | --- | --- | --- |
| COc1ccc(N2CCN(CCCN3CCCc4ccccc4C3=O)CC2)cc1 | 1.1 | > 100 | 1.1 | 42.8 |  |  |
| COc1ccccc1N1CCN(CCCN2CCc3ccccc3C2=O)CC1 | 1.58 |  | 50.4 | 59.5 |  |  |
| COc1ccc(N2CCN(CCCN3CCc4ccccc4C3=O)CC2)cc1 | 10 |  | 1.35 | 43.5 |  |  |
| COc1ccc(N2CCN(CCCCN3CCc4ccccc4C3=O)CC2)cc1 | 0.49 |  | 33.2 | 34.2 |  |  |
| COc1ccc(N2CCN(CCCN3CCCCc4ccccc4C3=O)CC2)cc1 | 8.91 |  | 13.1 | 58.9 |  |  |
| O=C1c2ccccc2CCCN1CCCN1CCN(c2cccc(C(F)(F)F)c2)CC1 | 1.05 |  | 55.5 |  | 4.9 |  |
| O=C1c2ccccc2CCN1CCCN1CCN(c2cccc(C(F)(F)F)c2)CC1 | 2.4 |  | 52.4 |  | 1.74 |  |
| O=C1c2ccccc2CCCN1CCCN1CCN(c2cccc(Cl)c2Cl)CC1 | 0.389 | 0.219 |  |  | 2.4 |  |
| COc1cccc(N2CCN(CCCCN3CCc4ccccc4C3=O)CC2)c1 | 0.0407 | 0.158 |  |  | 0.427 |  |
| O=C1c2ccccc2CCN1CCCN1CCN(c2cccc(Cl)c2Cl)CC1 | 0.209 |  | 59.9 |  | 1.45 |  |
| O=C1c2ccccc2CCN1CCCCN1CCN(c2cccc(Cl)c2Cl)CC1 | 0.162 | 0.0115 |  |  | 1.78 |  |
| COc1ccccc1N1CCN(CCCCCN2CCc3ccccc3C2=O)CC1 | 0.0324 | 0.0204 |  |  | 0.977 |  |
| O=C(NCCCCN1CCN(c2cccc(Cl)c2Cl)CC1)c1cc2ccccc2s1 |  |  |  |  |  | Selectivity ratio [5]: 7200 |

More lines, main results first:

| Ki (D(3) dopamine receptor; read-out: pKi (converted)) [µM] | Ki (D(2) dopamine receptor [1]) [µM] | Activity (D(2) dopamine receptor [2]) [%] | Activity (D(1A) dopamine receptor [3]) [%] | Ki (D(1A) dopamine receptor [4]) [µM] | Structure (SMILES) | other results |
| --- | --- | --- | --- | --- | --- | --- |
| 0.00676 | 0.0355 |  |  | 0.347 | O=C1c2ccccc2CCN1CCCCN1CCN(c2ccccc2Cl)CC1 | Ratio Ki (Homo sapiens): 5.2 |
| 8.32 |  | 36.4 | 46 |  | O=C1c2ccccc2CCCN1CCCN1CCN(c2ncccn2)CC1 |  |
| 4.17 |  | 26.3 | 57 |  | O=C1c2ccccc2CCCN1CCCN1CCN(c2ccccn2)CC1 |  |
| 0.398 | 0.229 |  |  | 0.282 | O=C1c2ccccc2CCCN1CCCCN1CCN(c2ccccn2)CC1 |  |
|  |  | 59 | 47.5 |  | COc1ccc(N2CCN(CCCCN3CCCc4ccccc4C3=O)CC2)cc1 | Ki (D(3) dopamine receptor; read-out: Ki): 0.04 µM |
| 24.5 |  | 0.36 | 40.8 |  | O=C1c2ccccc2CCN1CCCN1CCN(c2ncccn2)CC1 |  |
| 0.00158 | 0.00363 |  |  | 2.69 | COc1ccccc1N1CCN(CCCCN2CCCc3ccccc3C2=O)CC1 | Ratio Ki (Homo sapiens): 2.2 |
| 8.32 |  | 12.4 |  | 1.7 | O=C1c2ccccc2CCN1CCCN1CCN(c2ccccn2)CC1 |  |
| 1.51 |  | 60.5 | 31.6 |  | O=C1c2ccccc2CCN1CCCCN1CCN(c2ncccn2)CC1 |  |
| 0.209 | 0.794 |  |  | 2.51 | COc1ccccc1N1CCN(CCCN2CCCc3ccccc3C2=O)CC1 |  |
|  |  | 57.5 |  | 2.04 | O=C1c2ccccc2CCN1CCCCN1CCN(c2ccccn2)CC1 |  |
| 0.0145 | 0.0363 |  |  | 1.74 | O=C1c2ccccc2CCCN1CCCCN1CCN(c2cccc(Cl)c2Cl)CC1 | Ki [6]: 0.01 µM; Ratio Ki (Homo sapiens): 2.5 |
|  | 0.0123 |  | 61.1 |  | COc1ccccc1N1CCN(CCCCN2CCc3ccccc3C2=O)CC1 |  |
| 0.631 | 0.151 |  |  | 8.71 | O=C1c2ccccc2CCCN1CCCCN1CCN(c2ncccn2)CC1 |  |
